Results taken from patent publication US10568320B2, “Biologically-based control methods for insect pests” (The United States of America, as represented by the …, priority 2017, dated 2020).
Entries after “also recorded” stand apart in the source; their conditions may differ.

Experiments:
[1] = test system: mature female alates (MFAs); experiment: Injection into MFA abdomen: wing loss (dealation); format: in vivo, Solenopsis invicta; conditions: 100 nL of a 1.0% saline solution injected into the MFA abdomen
Description: While the MFAs are in their mother colony, the queen releases primer pheromones that inhibit wing loss (sometimes referred to herein as “dealation”), development of ovaries, wing muscle histolysis, and pheromone production. This release prevents reproductive/resource competition between the MFAs and the mother queen. If MFAs are removed from the colony, they become disinhibited and eventually (e.g., within days) lose their wings and start the physiological processes (e.g., wing loss and ovariole development). MFA also become disinhibited when they leave the colony on a mating flight; however, in this case the now NMQs lose their wings within minutes of landing and initiate the above mentioned physiological/biochemical changes (e.g., wing loss and ovariole development). We know from previous experiments that mating is the trigger, not mating flight initiation or the act of flying (Burns, S. N., et al. (2002) Identification and action of juvenile hormone III from sexually mature alate females of the red imported fire ant, Solenopsis invicta. Journal of Insect Physiology 48: 357-365; Burns, S. N., et al. (2005), The effect of age and social environment on dealation in Solenopsis invicta (Hymenoptera: Formicidae) female […]. […] Burns, S. N., et al. […]

4th instar sexual larvae = experiment: Direct (hand) feeding of 4th instar sexual larvae; format: in vivo, Solenopsis invicta
Description: It was concluded that the 4th instar larvae are refractory to the mortality effects observed when workers are fed tyramine.

fire ant workers [2] = experiment: Example 14 feeding experiments: fire ant worker mortality
female sexuals (alates) = experiment: Worker attraction to poison sac extracts of dealates (queen pheromone bioassay); format: in vivo, Solenopsis invicta; conditions: extracts from dealates of fed sub-colonies
[3] = test system: mature female alates (MFAs); experiment: Injection into MFA abdomen: ovariole development and egg-laying; format: in vivo, Solenopsis invicta; conditions: 100 nL of a 1.0% saline solution (1 microgram) injected
Description: Two measures of ovariole development were used. […] Measurement of ovariole area in the same samples gave a quantitative measure of ovariole development. […] Within the context of a colony this effect would be in direct conflict with the colony queen. Eggs laid would not be fertile and therefore develop into males. Queen pheromone is also produced by […], which would act to reduce the fecundity of the colony queen. For example, in polygyne colonies the higher the number of queens the lower is the mean egg-laying rate/queen due to the presence of excess queen pheromone (see Vander Meer, R. K., et al. (1992), A comparison of queen oviposition rates from monogyne and polygyne fire ant, Solenopsis invicta, colonies.

fire ant workers [4] = experiment: Five biogenic amines fed to fire ant workers as droplets; format: in vivo, Solenopsis invicta; conditions: 1% in 10% sucrose, 48 h
Procedure: Tyramine is one of five biogenic amines that may be found in insects (e.g., dopamine, histamine, octopamine, serotonin, and tyramine). The experiment in this example tests whether fire ant worker mortality effects observed with tyramine may be a general result of the ants ingesting greater than normal amounts of a biogenic amine. To test this hypothesis groups of 20 fire ant worker ants were starved for 24 hours and fed a 1% (w/v) biogenic amine in 10% sucrose solution. Treatments and sucrose were presented to the worker ants as a 25 microliter droplet on a 2 cm^2 piece of silicon treated filter paper. Each treatment and control were performed in triplicate for a total of 60 worker ants per treatment and control. Mortality was monitored for the first 7-8 h after introduction of the sucrose solutions, then at 24 h. The feeding/monitoring sequence was repeated for another 24 h period for a total of 48 h. The results are shown in FIG. 12A-12B in the form of Kaplan-Meier mortality curves.

[5] = Solubility in aqueous solution; format: physicochemical
[6] = test system: monogyne queenright colonies; experiment: Feeding of monogyne queenright colonies: worker and queen mortality; format: in vivo, Solenopsis invicta; conditions: 1% in 10% sucrose, 27 d
Description: FIGS. 24A and 24B show results for the sucrose (10%) control and two treatments, tyramine (1%) and N-methyl-tyramine (1%), both dissolved in 10% sucrose. The control and test colonies were monogyne queenright colonies, containing a single queen, brood and workers started in the laboratory from newly mated queens collected in the field. The mean number of workers per colony was 8,400±400. […] Previous experiments used queenless sub-colonies, rather than the queenright colonies in these experiments. The mortality effect on colony queens was unexpected, since worker fire ants are completely sterile and cannot reproduce even if the queen dies. Therefore, when the reproductive queen dies no more brood is produced and the colony is no longer functional—it is considered dead. […] Therefore, 80% of the treated colonies were considered dead.

[7] = test system: female alates and workers; experiment: Feeding of queenless colony sub-units with immature female alates; format: in vivo, Solenopsis invicta
Description: In this example, whether feeding tyramine and/or the tyramides to colony sub-units that contained female […] would result in inappropriate wing loss, as well as ovariole development. Wing muscle histolysis, and queen pheromone production normally accompanies wing loss (see Vargo, E. L. (1998), Primer pheromones in ants, pp. 293-313. In […]. Breed, […] and M. L. Winston (eds.), Pheromone communication in social insects ants, wasps, bees, and termites. […], Boulder, Colo.). […] The data supports and confirms that workers are feeding the treatments to the female […], which in turn stimulates wing loss in the […]. FIG. 11B is from the same experiment confirming the worker mortality effects of the tyramine and tyramide treatments.

fire ant workers [8] = experiment: Droplet feeding of worker groups: mortality over 24 h and concentration series; format: in vivo
Procedure: To determine how quickly the tyramine and acetyl tyramide act, 60 workers were allowed to feed on tyramine (FIG. 8A) or acetyl tyramide (FIG. 8B) dissolved at about 1% in 10% sucrose solution. The control and treatments were presented to the worker ants as droplets on phase separation filter paper. Consumption of the droplets was readily observed. Mortality was monitored for each of the first 10 hours and then at 24 hours. […] Tyramine and acetyl tyramide had >50% and >40% mortality, respectively within the 24 h time period of the experiment. […] This distribution is a cornerstone of pest ant baits. To test this hypothesis, a similar experiment was conducted. Workers were allowed to feed on the treatment and control solutions and were then transferred to another container with unfed nestmates. In all cases, it was observed that the treatment fed workers regurgitated the treatment and sucrose solutions to their unfed nestmates through the classic mechanism of trophallaxis (data not shown). Thus, normal worker behavior necessary for bait development was not affected by the treatments under these experimental conditions.
One criteria for an effective pest ant Active Ingredient (AI) is maintenance of activity over 1-3 orders of magnitude, because as the bait is distributed from one ant to another the material is diluted. The AI must maintain activity until all individuals in the colony (e.g., workers, brood and sexuals including the queen) have received the AI. […] Journal of Economic Entomology 99(5): 1739-1748). The 0.01% had >24 h delay in mortality.

fire ant workers [9] = experiment: Species specificity droplet feeding: fire ant workers; format: in vivo, Solenopsis invicta; conditions: 1% in 10% sucrose, 24 h
Description: (§1) To evaluate the effect of tyramine on another pest ant species triplicate groups of 20 Tawny crazy ant (Nylanderia fulva) workers and triplicate groups of 20 fire ant workers were setup. Corresponding controls for both pest ant species were workers fed 10% sucrose solution. The treatment was 1% tyramine in 10% sucrose (weight-to-volume). The control and treatments were presented to the worker ants as droplets on phase separation filter paper. Consumption of the droplets was readily observed. Mortality was monitored for each of the first 10 hours and then at 24 hours. The results are shown as mean±standard error of accumulated mortality for controls and treatments at 24 h in FIG. 13. […] These unexpected results illustrate that the toxicity effects of tyramine on fire ants are not automatically extended to other ant species.

[10] = test system: Tawny crazy ant (Nylanderia fulva) workers; experiment: Species specificity droplet feeding: tawny crazy ant workers; format: in vivo; conditions: 1% in 10% sucrose, 24 h
Description: as §1

SMILES: NCCc1ccc(O)cc1 [tyramine]
- dealation (wing loss) compared to the control [1]: significantly faster and inappropriate dealation
- mortality / sickness of 4th instar sexual larvae (4th instar sexual larvae; fed once, 80 nL max of about 1% w/v in 10% sucrose, N=10): All sexual larvae fed tyramine died by day 5
- amount fed at which fire ant sexual larvae die (4th instar sexual larvae; in vivo): 0.8 micrograms
- fire ant worker mortality versus 10% sucrose control (fire ant workers [2]; 0.01% in 10% sucrose): significantly different from the 10% sucrose control
- fire ant worker mortality versus 10% sucrose control (fire ant workers [2]; 0.1% in 10% sucrose): significantly different from the 10% sucrose control
- fire ant worker mortality versus 10% sucrose control (fire ant workers [2]; 1.0% in 10% sucrose): significantly different from the 10% sucrose control
- concentration of solution fed to workers that led to mortality after 7 days (fire ant workers [2]; estimated from feeding studies): 0.01 micrograms per microliter
- worker attraction to poison sac extracts versus N,N-dimethyl tyramine treatment and controls (female sexuals (alates)): significantly different from those from the N,N-dimethyl tyramine treatment and the sucrose and hexane controls
- ovariole development, ovariole area, compared to controls [3]: caused significant ovariole development
- ovariole development, ovary rank 1-4, compared to the control [3]: significant ovariole development
- worker mortality, tyramine HCl versus tyramine free base (fire ant workers [4]): not significantly different
- water solubility [5]: water soluble
- solubility maximum ([5]; solution): 1%
- % worker mortality at the end of the experiment versus control [6]: significantly different from the corresponding controls
- fate of colony queens (five replicates) [6]: one colony queen survived out of five
- queen mortality at the end of the experiment versus control [6]: significantly different from the corresponding controls
- colonies considered dead ([6]; five colonies): 80%
- wing loss of female alates ([7]; fed in 10% sucrose continuously for 7 days, via workers): rapid wing loss
- ovariole development of female alates fed by workers ([7]; sub-colonies): commencement of ovariole development
- delay in mortality (fire ant workers [8]; 0.01% concentration): > 24 h
- mortality delay (fire ant workers [8]; 0.1% concentration): ≥ 5 h
- mortality delay (fire ant workers [8]; 1.0% concentration): ≥ 5 h
- worker mortality at a dilution factor of 100 (fire ant workers [8]; about 0.01% (weight-to-volume)): significant worker mortality
- worker mortality compared with sucrose control (Kaplan-Meier, Log-rank) (fire ant workers [8]; about 1% in 10% sucrose, 24 h): significantly greater worker mortality than the sucrose control
- worker mortality within the 24 h time period (fire ant workers [8]; in vivo): > 50%
- accumulated worker mortality compared to sucrose control (fire ant workers [9]): significant mortality compared to its sucrose control
- accumulated worker mortality compared to sucrose control [10]: did not have significant mortality compared to its sucrose control; also recorded: no effect on crazy ant workers
